Where “and” joins values, the source holds several entries; their conditions need not be identical. Equal entries are not always repeated.
Assay: xn = mol fraction of the nth substance listed

CCCO + O
Details	viscosity
293.15 K, 100 kPa, x1 = 0.07	2.217 mPa·s
293.15 K, 100 kPa, x1 = 0.2	3.175 mPa·s and 3.013 mPa·s
293.15 K, 101 kPa, x1 = 0.01	1.156 mPa·s
293.15 K, 101 kPa, x1 = 0.02	1.335 mPa·s
293.15 K, 101 kPa, x1 = 0.05	1.898 mPa·s
293.15 K, 101 kPa, x1 = 0.07	2.209 mPa·s
293.15 K, 101 kPa, x1 = 0.1	2.545 mPa·s
293.15 K, 101 kPa, x1 = 0.2838	3.191 mPa·s
293.15 K, 101 kPa, x1 = 0.3	3.173 mPa·s
293.15 K, 101 kPa, x1 = 0.4	3.053 mPa·s
293.15 K, 101 kPa, x1 = 0.5	2.88 mPa·s
293.15 K, 101 kPa, x1 = 0.6	2.707 mPa·s
293.15 K, 101 kPa, x1 = 0.7001	2.537 mPa·s
293.15 K, 101 kPa, x1 = 0.8	2.403 mPa·s
298.15 K, 101 kPa, x1 = 0.0058	0.9625 mPa·s
298.15 K, 101 kPa, x1 = 0.01	1.024 mPa·s
298.15 K, 101 kPa, x1 = 0.02	1.16 mPa·s
298.15 K, 101 kPa, x1 = 0.0237	1.225 mPa·s
298.15 K, 101 kPa, x1 = 0.0461	1.552 mPa·s
298.15 K, 101 kPa, x1 = 0.05	1.603 mPa·s
298.15 K, 101 kPa, x1 = 0.0678	1.82 mPa·s
298.15 K, 101 kPa, x1 = 0.07	1.844 mPa·s
298.15 K, 101 kPa, x1 = 0.0976	2.164 mPa·s
298.15 K, 101 kPa, x1 = 0.1195	2.263 mPa·s
298.15 K, 101 kPa, x1 = 0.1833	2.576 mPa·s
298.15 K, 101 kPa, x1 = 0.2398	2.682 mPa·s
298.15 K, 101 kPa, x1 = 0.2838	2.685 mPa·s
298.15 K, 101 kPa, x1 = 0.3108	2.702 mPa·s
298.15 K, 101 kPa, x1 = 0.4	2.592 mPa·s
298.15 K, 101 kPa, x1 = 0.4971	2.511 mPa·s
298.15 K, 101 kPa, x1 = 0.5	2.465 mPa·s
298.15 K, 101 kPa, x1 = 0.6	2.333 mPa·s
298.15 K, 101 kPa, x1 = 0.6916	2.236 mPa·s
298.15 K, 101 kPa, x1 = 0.7001	2.202 mPa·s
298.15 K, 101 kPa, x1 = 0.8	2.097 mPa·s
298.15 K, 101 kPa, x1 = 0.8011	2.129 mPa·s
298.15 K, 101 kPa, x1 = 0.8967	2.039 mPa·s
298.15 K, 101 kPa, x2 = 0.0021	1.985 mPa·s
298.15 K, 101 kPa, x2 = 0.0695	2.041 mPa·s
298.15 K, 101 kPa, x2 = 0.0932	2.063 mPa·s
298.15 K, 101 kPa, x2 = 0.1232	2.085 mPa·s
298.15 K, 101 kPa, x2 = 0.1439	2.104 mPa·s
298.15 K, 101 kPa, x2 = 0.1892	2.142 mPa·s
298.15 K, 101 kPa, x2 = 0.2084	2.16 mPa·s
298.15 K, 101 kPa, x2 = 0.9678	1.11 mPa·s
298.15 K, 101.3 kPa, x1 = 0.01	1.027 mPa·s
298.15 K, 101.3 kPa, x1 = 0.025	1.247 mPa·s
298.15 K, 101.3 kPa, x1 = 0.045	1.55 mPa·s
298.15 K, 101.3 kPa, x1 = 0.065	1.81 mPa·s
298.15 K, 101.3 kPa, x1 = 0.08	1.969 mPa·s
303.15 K, 101 kPa, x1 = 0.01	0.906 mPa·s
303.15 K, 101 kPa, x1 = 0.02	1.019 mPa·s
303.15 K, 101 kPa, x1 = 0.05	1.366 mPa·s
303.15 K, 101 kPa, x1 = 0.07	1.555 mPa·s
303.15 K, 101 kPa, x1 = 0.1	1.786 mPa·s
303.15 K, 101 kPa, x1 = 0.2838	2.277 mPa·s
303.15 K, 101 kPa, x1 = 0.3	2.267 mPa·s
303.15 K, 101 kPa, x1 = 0.4	2.216 mPa·s
303.15 K, 101 kPa, x1 = 0.5	2.118 mPa·s
303.15 K, 101 kPa, x1 = 0.6	2.023 mPa·s
303.15 K, 101 kPa, x1 = 0.7001	1.92 mPa·s
303.15 K, 101 kPa, x2 = 0.0998	1.794 mPa·s
303.15 K, 101 kPa, x2 = 0.2	1.852 mPa·s
303.15 K, 101 kPa, x2 = 0.2998	1.94 mPa·s
303.15 K, 101 kPa, x2 = 0.5001	2.135 mPa·s
303.15 K, 101 kPa, x2 = 0.6996	2.273 mPa·s
303.15 K, 101 kPa, x2 = 0.7953	2.212 mPa·s
303.15 K, 101 kPa, x2 = 0.8997	1.795 mPa·s
303.15 K, 101 kPa, x2 = 0.9401	1.463 mPa·s
303.15 K, 101 kPa, x2 = 0.98	1.025 mPa·s
308.15 K, 101 kPa, x1 = 0.01	0.81 mPa·s
308.15 K, 101 kPa, x1 = 0.02	0.912 mPa·s
308.15 K, 101 kPa, x1 = 0.05	1.187 mPa·s
308.15 K, 101 kPa, x1 = 0.07	1.342 mPa·s
308.15 K, 101 kPa, x1 = 0.1	1.53 mPa·s
308.15 K, 101 kPa, x1 = 0.2838	1.951 mPa·s
308.15 K, 101 kPa, x1 = 0.3	1.953 mPa·s
308.15 K, 101 kPa, x1 = 0.4	1.915 mPa·s
308.15 K, 101 kPa, x1 = 0.5	1.84 mPa·s
308.15 K, 101 kPa, x1 = 0.6	1.765 mPa·s
308.15 K, 101 kPa, x1 = 0.7001	1.686 mPa·s
308.15 K, 101 kPa, x1 = 0.8	1.623 mPa·s
308.15 K, 101 kPa, x2 = 0.9678	0.9401 mPa·s
313.15 K, 101 kPa, x1 = 0.01	0.728 mPa·s
313.15 K, 101 kPa, x1 = 0.02	0.807 mPa·s
313.15 K, 101 kPa, x1 = 0.05	1.039 mPa·s
313.15 K, 101 kPa, x1 = 0.07	1.167 mPa·s
313.15 K, 101 kPa, x1 = 0.1	1.33 mPa·s
313.15 K, 101 kPa, x1 = 0.2	1.625 mPa·s
313.15 K, 101 kPa, x1 = 0.2838	1.69 mPa·s
313.15 K, 101 kPa, x1 = 0.3	1.692 mPa·s
313.15 K, 101 kPa, x1 = 0.5	1.61 mPa·s
313.15 K, 101 kPa, x1 = 0.6	1.547 mPa·s
313.15 K, 101 kPa, x1 = 0.7001	1.485 mPa·s
318.15 K, 101 kPa, x1 = 0.01	0.659 mPa·s
318.15 K, 101 kPa, x1 = 0.02	0.726 mPa·s
318.15 K, 101 kPa, x1 = 0.05	0.919 mPa·s
318.15 K, 101 kPa, x1 = 0.07	1.027 mPa·s
318.15 K, 101 kPa, x1 = 0.1	1.164 mPa·s
318.15 K, 101 kPa, x1 = 0.2	1.42 mPa·s
318.15 K, 101 kPa, x1 = 0.3	1.479 mPa·s
318.15 K, 101 kPa, x1 = 0.4	1.46 mPa·s
318.15 K, 101 kPa, x1 = 0.5	1.416 mPa·s
318.15 K, 101 kPa, x1 = 0.6	1.366 mPa·s
318.15 K, 101 kPa, x1 = 0.7001	1.315 mPa·s
318.15 K, 101 kPa, x2 = 0.9678	0.819 mPa·s
323.15 K, 100 kPa, x1 = 0.07	0.917 mPa·s
323.15 K, 100 kPa, x1 = 0.2	1.212 mPa·s
323.15 K, 100 kPa, x1 = 0.3	1.314 mPa·s
323.15 K, 101 kPa, x1 = 0.01	0.6 mPa·s
323.15 K, 101 kPa, x1 = 0.02	0.657 mPa·s
323.15 K, 101 kPa, x1 = 0.05	0.82 mPa·s
323.15 K, 101 kPa, x1 = 0.07	0.912 mPa·s
323.15 K, 101 kPa, x1 = 0.1	1.03 mPa·s
323.15 K, 101 kPa, x1 = 0.2	1.25 mPa·s
323.15 K, 101 kPa, x1 = 0.5	1.252 mPa·s
323.15 K, 101 kPa, x1 = 0.6	1.212 mPa·s
323.15 K, 101 kPa, x1 = 0.7001	1.171 mPa·s
